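Grown in 96-well plates, cells were treated for 48 hours with each compound at five concentrations. Insufficient inhibition: endpoint recorded as highest concentration tested. GI50: concentration for 50% inhibition of growth.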 The source made the active and inactive calls. No stated cut-off is given here; in the data, active = GI50 up to about 1.1 µM and inactive = higher.
Columns and labels:
Assay in all cases: NCI tumour cell line growth inhibition, 48 h
[1] = test system: EKVX
[2] = test system: RPMI-8226
[3] = test system: SF-295
[4] = test system: HCT-116
[5] = test system: CCRF-CEM
[6] = test system: LOX IMVI
[7] = test system: SF-268
[8] = test system: HT-29
[9] = test system: UACC-257
[10] = test system: NCI/ADR-RES
[11] = test system: SK-OV-3
[12] = test system: K562
[13] = test system: OVCAR-4
[14] = test system: COLO 205
[15] = test system: Malme-3M
[16] = test system: IGROV-1
[17] = test system: MDA-N
[18] = test system: MOLT-4
[19] = test system: OVCAR-3
[20] = test system: SNB-75

Structure (SMILES) | GI50 [1] | GI50 [2] | GI50 [3] | GI50 [4] | GI50 [5] | GI50 [6] | GI50 [7] | GI50 [8] | GI50 [9] | GI50 [10] | GI50 [11] | GI50 [12] | GI50 [13] | GI50 [14] | GI50 [15] | GI50 [16] | GI50 [17] | GI50 [18] | GI50 [19] | GI50 [20]
CCOC(=O)Oc1ccc2c(c1)c(=O)c1c(NCCN(CC)CC)ccc3nnn2c31 | 6.41 µM (inactive) | 0.908 µM (active) | 3.78 µM (inactive) | 0.405 µM (active) | 0.172 µM (active) | 1.18 µM (inactive) | 1.43 µM (inactive) | 1.29 µM (inactive) | 7.35 µM (inactive) | 2.39 µM (inactive) | 8 µM (inactive) | 0.948 µM (active) | 2.55 µM (inactive) | 1.01 µM (active) | 2.78 µM (inactive) | 0.519 µM (active) | 2.94 µM (inactive) | < 0.0166 µM (active) | 4.46 µM (inactive) | –
CC(=O)N1C(=O)c2cc3ccccc3cc21 | > 100 µM (inactive) | > 100 µM (inactive) | – | 61.4 µM (inactive) | 78.2 µM (inactive) | > 100 µM (inactive) | > 100 µM (inactive) | – | – | > 100 µM (inactive) | > 100 µM (inactive) | > 100 µM (inactive) | – | > 100 µM (inactive) | – | 38.8 µM (inactive) | > 100 µM (inactive) | – | – | 92.5 µM (inactive)
CC1OC(OC2C(O[C@H]3CC[C@@]4(C)C(=CC[C@H]5[C@@H]6C[C@@H]7O[C@]8(CC[C@@H](CO)CO8)[C@@H](C)[C@@H]7[C@@]6(C)CC[C@@H]54)C3)OC(CO)C(O)C2OC2OC(CO)C(O)C(O)C2O)C(O)C(O)C1O (stereo not given in full) | 2.07 µM (inactive) | 1.94 µM (inactive) | – | 1.65 µM (inactive) | – | 1.85 µM (inactive) | 1.85 µM (inactive) | 2.1 µM (inactive) | 1.77 µM (inactive) | 1.97 µM (inactive) | 2.62 µM (inactive) | 1.71 µM (inactive) | 1.91 µM (inactive) | 1.88 µM (inactive) | 1.81 µM (inactive) | 1.95 µM (inactive) | 1.68 µM (inactive) | – | – | 1.58 µM (inactive)
COc1ccc(-c2c3c(n(C4OC(CO)C(O)C(O)C4O)c(=S)c2C#N)CCCC3)cc1 (stereo not given) | > 100 µM (inactive) | – | > 100 µM (inactive) | > 100 µM (inactive) | 52 µM (inactive) | > 100 µM (inactive) | – | > 100 µM (inactive) | > 100 µM (inactive) | > 100 µM (inactive) | > 100 µM (inactive) | – | > 100 µM (inactive) | > 100 µM (inactive) | > 100 µM (inactive) | > 100 µM (inactive) | > 100 µM (inactive) | 73.1 µM (inactive) | > 100 µM (inactive) | 0.355 µM (active)
O=C1C(C(O)(C(F)(F)Cl)C(F)(F)Cl)CCCC1C(O)(C(F)(F)Cl)C(F)(F)Cl (stereo not given) | > 10 µM (inactive) | – | > 10 µM (inactive) | > 10 µM (inactive) | – | > 10 µM (inactive) | > 10 µM (inactive) | > 10 µM (inactive) | > 10 µM (inactive) | > 10 µM (inactive) | > 10 µM (inactive) | – | > 10 µM (inactive) | > 10 µM (inactive) | > 10 µM (inactive) | > 10 µM (inactive) | > 10 µM (inactive) | – | > 10 µM (inactive) | –
Cc1ccc(S(=O)(=O)N(CCNC(=O)c2cccc(O)c2O)c2cc3c4c(c2)Oc2cccc5c2C4(C)c2c(cccc2O3)O5)cc1 | 37.4 µM (inactive) | > 100 µM (inactive) | > 100 µM (inactive) | 28.8 µM (inactive) | – | 6.08 µM (inactive) | 15.1 µM (inactive) | > 100 µM (inactive) | > 100 µM (inactive) | 2.54 µM (inactive) | 57.1 µM (inactive) | 41.1 µM (inactive) | > 100 µM (inactive) | – | 29.2 µM (inactive) | 5.93 µM (inactive) | 6.93 µM (inactive) | > 100 µM (inactive) | 6.52 µM (inactive) | 10.9 µM (inactive)
Oc1ccc2ccccc2c1/N=N/c1cc(Cl)ccc1Cl | 9.06 µM (inactive) | > 50 µM (inactive) | 9.73 µM (inactive) | 15.6 µM (inactive) | 17.9 µM (inactive) | – | 17.1 µM (inactive) | 19.3 µM (inactive) | > 50 µM (inactive) | 31.6 µM (inactive) | 10.8 µM (inactive) | 20.7 µM (inactive) | 13.9 µM (inactive) | 23.3 µM (inactive) | 24.1 µM (inactive) | 7.67 µM (inactive) | 27.5 µM (inactive) | 15.4 µM (inactive) | 19.5 µM (inactive) | 11.3 µM (inactive)
C[N+]1(C)C2Cc3ccccc3C1Cc1ccccc12 | > 100 µM (inactive) | 62.7 µM (inactive) | > 100 µM (inactive) | > 100 µM (inactive) | > 100 µM (inactive) | > 100 µM (inactive) | > 100 µM (inactive) | > 100 µM (inactive) | > 100 µM (inactive) | > 100 µM (inactive) | > 100 µM (inactive) | – | > 100 µM (inactive) | > 100 µM (inactive) | > 100 µM (inactive) | > 100 µM (inactive) | 78.2 µM (inactive) | > 100 µM (inactive) | 90.8 µM (inactive) | –
